Values joined by “and” are separate entries in the source; they are usually repeats but may differ in a detail not shown here. Equal values may be shown once.

In data set [1] the test system is A375 human melanoma cells. The data set can be described thus: Cytotoxicity assay (MTT relative viability), A375 cells. The data set is classed as cell-based. The following applies: BSG and BO applied together, 72 hours, FIGS. 1A and 1B. On the procedure:
(§1) A375 human melanoma cells (obtained from Food Industry Research and Development Institute, Hsinchu, Taiwan, R.O.C. under accession number CCRC 60039) and normal human keratinocyte (HaCaT) cells (obtained from Dr. Lin P., Institute of Medical & Molecular Toxicology, Chung Shan Medical University, Taichung, Taiwan) were used for the test.
(§2) A375 and HaCaT cells were incubated in 96-well plates (Corning Incorporated COSTAR® 3599) at a density of 3×10^3 cells/well and 5×10^3 cells/well, respectively. After 24 hours, the cells were treated with various concentrations of bismuth subgallate (BSG) and borneol (BO) for 72 hours. The cytotoxicity effect of BSG and BO was estimated by the relative viability (%) of the cells, which was determined by measuring the reduction of tetrazolium salt MTT using a Microplate reader (Thermo Lab systems Multishkan Spectrum) at a test wavelength of 550 nm and a reference wavelength of 690 nm. The relative viability is calculated by the following equation: Relative Viability(%)=ODtestODcontrol×100 The results are represented by the means plus standard errors (Mean±SE) of five repetitions.

The test system of data set [2] is normal human keratinocyte (HaCaT) cells. The data set can be described thus: Cytotoxicity assay (MTT relative viability), HaCaT cells. The data set is classed as cell-based. The conditions noted are these: BSG and BO applied together, 72 hours, FIG. 2. The procedure:
as §1, §2

`CC1(C)C2CCC1(C)C(O)C2` (stereo not drawn) [BO, borneol]: the “lowest concentration at which reduction of relative viability of A375 cells is observed” value in data set [1] came to 2.5 µg/mL.
With bismuth subgallate [BSG], the “lowest concentration at which reduction of relative viability of A375 cells is observed” value in data set [1] was 17.5 µg/mL. The “concentrations at which cytotoxicity effect on HaCaT cells is observed (only at high concentrations)” value in data set [2] was 140 µg/mL and 280 µg/mL.
